The values below come from patent publication US9981961B2, “Deoxycytidine kinase inhibitors” (The Regents of the University of California, priority 2013, dated 2018).

Data set [1] is described as follows: in vitro. The note with it: human, microsomes.
A short description of data set [2]: Tolerability in NSG mice (body weight, peripheral blood counts). The data set is classed as in vivo. As to conditions: twice/day for 7 days, alone or in combination with dT. An excerpt: All mice were anesthetized and whole blood was obtained through cardiac puncture. For peripheral blood counts, samples were collected in tubes containing EDTA and submitted to UCLA Division of Lab Animal Medicine for analysis.

Data set [3] is described as follows: Solubility statement. In kind it is physicochemical.
Data set [4] can be described thus: Pharmacokinetics of DI-39 in plasma and tumor tissue (LC/MS/MS-MRM). The note with it: mouse, ip. The data set is classed as in vivo. The procedure:
To determine the pharmacokinetic profile of DI-39, C57Bl/6 female mice were dosed with DI-39 via intraperitoneal injection following the protocol that was described previously (Murphy et al., 2013). Dose formulation include 10% DMSO and 40% Captisol (SBE-β-CD, a polyanionic variably substituted sulfobutyl ether of β-cyclodextrin, (Stella and He, 2008)) in water. Approximately 75 μL of whole blood was obtained at various time points starting 5 to 360 minutes through retro-orbital sinus bleed using hematocrit capillary tubes. Approximated values of the Area Under the Curve (AUC), clearance rate (CL), half-life (T1/2), maximum concentration in the plasma (Cmax) and time to reach the maximum concentration (Tmax) were calculated using Boomer/Multi-Forte P K Functions from Microsoft Excel.
For the DI-39 tumoral and plasma uptake study using LC/MS/MS-MRM, tumor-bearing NSG mice were injected with 50 mg/kg DI-39 intraperitoneally at 0, 2, 4, 8 and 12 hours prior to sacrifice. […] The ion transitions for DI-39 and DI-70 (525.2→383.3 and 550.2→408.2 respectively) were recorded under previously optimized conditions. […]

Data set [5] concerns dCTP and dTTP pools of CEM cells. Nature of the data set: Intracellular dNTP pool measurement in CEM cells. The data set is classed as cell-based, human. The note with it: 24 hr, DI-39 1 μM, dT 50 μM, or both.
For data set [6], the target named is dCK in CCRF-CEM cells (Homo sapiens, UniProt P27707). Nature of the data set: cell-based.
Sequence of dCK in CCRF-CEM cells (P27707 whole entry): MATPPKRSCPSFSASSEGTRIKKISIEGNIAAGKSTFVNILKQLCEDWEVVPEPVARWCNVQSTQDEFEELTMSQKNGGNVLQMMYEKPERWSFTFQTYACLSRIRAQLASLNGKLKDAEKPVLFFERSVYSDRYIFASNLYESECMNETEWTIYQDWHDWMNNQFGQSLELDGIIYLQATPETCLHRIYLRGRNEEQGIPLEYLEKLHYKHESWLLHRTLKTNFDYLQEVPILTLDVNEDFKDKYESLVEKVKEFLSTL
Protocol: These were performed in CCRF-CEM acute lymphoblastic leukemia cells as previously described.^8, 9
dCK Uptake Assay Performed in Cell Culture. […] For the uptake assays cells were seeded at a density of 50,000 cells/well in Millipore MultiScreen GV 96 well plates. […] After 1 h at 37° C., cells were washed four times with ice cold phosphate-buffered saline (PBS) using the Millipore Vacuum Manifold. The amount of incorporated probe was measured by scintillation counting with the PerkinElmer Microbeta.
Data set [7] concerns the target dCK activity in liver (Mus musculus, UniProt P43346). The data set can be described thus: 18F-L-FAC PET liver assay of in vivo dCK inhibition. The note with it: mice.
Protocol: Evaluation of In Vivo Inhibition of dCK Activity Via a New PET PD Assay. […] Four hours later, treated mice were injected intravenously with ^18F-L-FAC; one hour after probe injection, mice were imaged by mPET/CT. The readout for the PET PD assay was the reduction in the accumulation of ^18F-L-FAC in dCK-positive tissues in dCK inhibitor versus vehicle treated mice. […] Since the reproducibility in the dCK-dependent tissue retention of ^18F-L-FAC was most consistent in the liver^27, we chose to quantify ^18F-L-FAC liver retention in order to compare the in vivo efficacy of the various dCK inhibitors.
In Vivo MicroPET/CT Imaging Studies. […] Four hours post-treatment mice were injected intravenously with 70 μCi of ^18F-L-FAC. For all mPET/CT studies, a 1 h interval was allowed between probe administration and mPET/CT scanning (Inveon, Siemens Medical Solutions USA Inc.; microCAT, Imtek Inc.). Static mPET images were acquired for 600 s. Images were analyzed using OsiriX Imaging Software Version 3.8.
The mark [8] stands for this setting: IC50 (nM), Table 3, inhibition of 3H-deoxycytidine (dCyd) uptake in CEM cells, mean ± SD of n ≥ 2 unless (n = 1).
[9] abbreviates: IC50, Example 4 list, assay and unit inferred, values correspond to the CEM 3H-dC uptake data of Tables 3 and 7.
Setting [10] is: IC50, Example 5 list, assay and unit inferred, values correspond to the CEM data of Table 3.

Sequence of dCK activity in liver (P43346 whole entry): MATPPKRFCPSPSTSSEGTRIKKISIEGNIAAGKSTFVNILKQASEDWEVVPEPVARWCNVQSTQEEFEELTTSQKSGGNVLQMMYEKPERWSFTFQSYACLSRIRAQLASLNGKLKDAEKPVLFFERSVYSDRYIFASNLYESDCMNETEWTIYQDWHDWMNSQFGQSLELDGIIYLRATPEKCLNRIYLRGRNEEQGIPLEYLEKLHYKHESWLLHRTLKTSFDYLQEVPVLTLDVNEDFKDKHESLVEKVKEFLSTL

Take `COc1ccc(-c2nc(CSc3nc(N)cc(N)n3)c(C)s2)cc1OCCF` [Compound 15a, 2-(((2-(3-(2-fluoroethoxy)-4-methoxyphenyl)-5-methylthiazol-4-yl)methyl)thio)pyrimidine-4,6-diamine]: in data set [1], the half-life at 1 μM is 16.3 min and the intrinsic metabolic clearance (microsomal CLint) at 1 μM was 142 µL/min/mg.

In the case of `CCCc1sc(-c2ccc(OC)c(OCCNS(C)(=O)=O)c2)nc1CSc1nc(N)cc(N)n1` [Compound 37, N-(2-(5-(4-(((4,6-diaminopyrimidin-2-yl)thio)methyl)-5-propylthiazol-2-yl)-2-methoxyphenoxy)ethyl)methanesulfonamide], in data set [2], the “effect on body weight” value is listed as “did not affect body weight” and the “effects on RBCs, hemoglobin, platelets or neutrophils” value is “no detectable effects”. Also, the “solubility in aqueous saline solutions” value in data set [3] is given as “limited solubility”. In data set [4] (female, plasma, C57Bl/6 mice, intraperitoneal injection), this compound yielded a half-life of roughly 50 min. In data set [4] (8 hr after single dose administration, 50 mg/kg intraperitoneal, CEM tumor-bearing NSG mice, read-out: drug present in tumor tissues), the concentration at 8 hr is roughly 15 nM. The “decrease of dCTP pool” value in data set [5] is given as roughly 30%. Turning to `CCCc1sc(-c2ccc(N(CCNS(C)(=O)=O)S(C)(=O)=O)c(OCCNS(C)(=O)=O)c2)nc1CSc1nc(N)cc(N)n1` [Compound S2], the IC50 in data set [6] (setting [8]) and in data set [6] (setting [9]) was 1200 nM throughout. In the case of `CCCc1sc(-c2ccc(OC)c(OCCCF)c2)nc1CSc1nc(N)cc(N)n1` [Compound S3], the IC50 is 2.5 nM in data set [6] (setting [8]) and 2.51 nM in data set [6] (setting [9]). The corresponding values for `CCCc1sc(-c2ccc(OCCF)c(OCC)c2)nc1CSc1nc(N)cc(N)n1` [Compound S4] are 2.8 nM and 2.86 nM. For `CCCc1sc(-c2ccc(F)c(OCCCF)c2)nc1CSc1nc(N)cc(N)n1` [Compound S5], the IC50 in data set [6] (setting [8]) and in data set [6] (setting [9]) was 31.7 nM each time. `CCCc1sc(-c2ccc(F)c(OCCF)c2)nc1CSc1nc(N)cc(N)n1` [Compound S6]: the 50% inhibitory concentration (IC50) is 23.3 nM in data set [6] (setting [8]) and 23.4 nM in data set [6] (setting [9]). The corresponding values for `CCCc1sc(-c2ccnc(OCCF)c2)nc1CSc1nc(N)cc(N)n1` [Compound S7] are 6.8 nM and 6.84 nM. With `[2H]C([2H])(Sc1nc(N)cc(N)n1)c1nc(-c2ccnc(OCCF)c2)sc1CCC` [Compound S8], the IC50 in data set [6] (setting [8]) and in data set [6] (setting [9]) was 30 nM throughout. Take `CCCc1sc(-c2ccc(OC)c(OCCOCCOCCSc3nc(N)cc(N)n3)c2)nc1CSc1nc(N)cc(N)n1` [Compound S10]: the 50% inhibitory concentration (IC50) in data set [6] (setting [8]) was 4.7 nM; in data set [6] (setting [9]), 4.75 nM.

In the case of `CCCc1sc(-c2ccc(OC)c(OCCOCCOCCO)c2)nc1CSc1nc(N)cc(N)n1` [Compound S11], the IC50 in data set [6] (setting [8]) and in data set [6] (setting [9]) was 1.06 nM in each case.

As for `COc1ccc(-c2cc(CSc3nc(N)cc(N)n3)c(C)o2)cc1OCCF` [Compound S12], the figures for the IC50 in data set [6] (setting [8]) and in data set [6] (setting [9]) were 13500 nM and 13800 nM, respectively.

For the compound `COc1cc(-c2cc(CSc3nc(N)cc(N)n3)c(C)o2)ccc1OCCF` [Compound S14], the IC50 in data set [6] (setting [8]) and in data set [6] (setting [9]) was 276 nM in each case. With `CCCc1sc(-c2ccc(OC)c(OCCF)c2)nc1CCc1nc(N)cc(N)n1` [Compound S15], the IC50 in data set [6] (setting [8]) and in data set [6] (setting [9]) was 664 nM each time. In the case of `CCCc1sc(-c2ccc(OC)c(OCCOCCOCCF)c2)nc1CSc1nc(N)cc(N)n1` [Compound S16], the IC50 in data set [6] (setting [8]) came to 4.22 nM; in data set [6] (setting [9]), 4.21 nM. As for `CCCc1sc(-c2cccc(OCCOCCOCCF)c2)nc1CSc1nc(N)cc(N)n1` [Compound S17], the half-maximal inhibitory concentration (IC50) in data set [6] (setting [8]) and in data set [6] (setting [9]) was 69.1 nM each time. In the case of `COc1cc(-c2cc(CSc3nc(N)cc(N)n3)c(C)s2)ccc1OCCF` [Compound S18], the IC50 in data set [6] (setting [8]) amounted to 262 nM; in data set [6] (setting [9]), 263 nM.

On to `CCCc1sc(-c2cc(F)cc(OCCOCCOCCF)c2)nc1CSc1nc(N)cc(N)n1` [Compound S19], for which the IC50 in data set [6] (setting [8]) and in data set [6] (setting [9]) was 33.7 nM in each case.

Consider `CCCc1sc(-c2ccc(OC)c(OCCOCCOCCOC)c2)nc1CSc1nc(N)cc(N)n1` [Compound S20, 2-(((2-(4-methoxy-3-(2-(2-(2-methoxyethoxy)ethoxy)ethoxy)phenyl)-5-propylthiazol-4-yl)methyl)thio)pyrimidine-4,6-diamine], for which the IC50 in data set [6] (setting [8]) and in data set [6] (setting [9]) was 3.31 nM in each case. Consider `CCCc1sc(-c2ccc(OCCOCCOCCOC)c(OCC)c2)nc1CSc1nc(N)cc(N)n1` [Compound S21], for which the half-maximal inhibitory concentration (IC50) in data set [6] (setting [8]) and in data set [6] (setting [9]) was 2.37 nM in each case. Consider `CCCc1sc(-c2ccc(OC)c(OCCOCCOCCOC)c2)nc1C(C)Sc1nc(N)cc(N)n1` (stereo not drawn) [Compound S22], for which the IC50 in data set [6] (setting [8]) stood at 6 nM; in data set [6] (setting [10]) it was 6.01 nM. Taken in the same sequence, the figures for `COCCOCCOCCOc1cc(-c2nc(C(C)Sc3nc(N)cc(N)n3)c(C)s2)ccc1OC` (stereo not drawn) [Compound S23] were 8.03 nM and 8.03 nM.

Take `COCCOCCOCCOc1ccc(-c2nc(C(C)Sc3nc(N)cc(N)n3)c(C)s2)cc1OC` (stereo not drawn) [Compound S24]: the results for the IC50 in data set [6] (setting [8]) and in data set [6] (setting [10]) were 6.1 nM and 6.12 nM, respectively.

Turning to `COCCOCCOCCOc1cc(-c2nc(CSc3nc(N)cc(N)n3)c(C3CC3)s2)ccc1OC` [Compound S25], the half-maximal inhibitory concentration (IC50) in data set [6] (setting [8]) turned out to be 23 nM; in data set [6] (setting [9]) it was 5.28 nM. Taken in the same sequence, the figures for `COCCOCCOCCOc1cc(-c2nc(CSc3nc(N)cc(N)n3)c(C)s2)ccc1OC` [Compound S26] were 9.1 nM and 9.3 nM. Take `COCCOCCOCCOc1cc(-c2nc(C(C)Sc3nc(N)cc(N)n3)c(C3CC3)s2)ccc1OC` (stereo not drawn) [Compound S27]: the IC50 in data set [6] (setting [8]) turned out to be 3.7 nM; in data set [6] (setting [10]), 2.47 nM. Moreover, the “outcome in the PET L-FAC liver assay” value in data set [7] is listed as “failed”. Turning to `COCCOCCOCCOc1cc(-c2nc(C(C)Sc3nc(N)cc(N)n3)c(-c3ccccc3)s2)ccc1OC` (stereo not drawn) [Compound S28], the IC50 in data set [6] (setting [8]) was found to be 98.9 nM. Same read-out and setting: the result for `Cc1sc(-c2cc(F)cc(OCCNS(C)(=O)=O)c2)nc1C(C)Sc1nc(N)cc(N)n1` (stereo not drawn) [Compound S31] reads 9.07 nM.

Regarding `CCCc1sc(-c2ccc(OC)c(OCCO)c2)nc1CSc1cc(N)nc(N)n1` [DI-42], half-maximal inhibition in data set [6] (setting [9]) (IC50) required 330 nM.

Compound `CCCc1sc(-c2ccnc(OCCNS(C)(=O)=O)c2)nc1CSc1nc(N)cc(N)n1` [DI-46] came in with a half-inhibitory concentration (IC50) in data set [6] (setting [9]) of 1180 nM.

In data set [6] (setting [9]), `COc1cc(-c2cc(CSc3nc(N)cc(N)n3)sc2C)ccc1OCCF` [DI-63] displayed a concentration for half-maximal inhibition (IC50) of 1580 nM. Same read-out and setting: the result for `COCCOCCOCCOc1cc(-c2nc(CSc3nc(N)cc(N)n3)c(C(Sc3nc(N)cc(N)n3)c3ccccc3)s2)ccc1OC` (stereo not drawn) [DI-78] reads 1660 nM.
